Earlier results on one compound are cited in patent US20090047357A1, “METHOD OF PRODUCING DRUG-CONTAINING WAX MATRIX PARTICLES, EXTRUDER TO BE USED IN THE METHOD AND SUSTAINED-RELEASE PREPARATION CONTAINING CILOSTAZOL” (OTSUKA PHARMACEUTICAL CO., LTD., priority 2005, published 2009).

Take `Cn1c(=O)c2[nH]cnc2n(C)c1=O` [theophylline]: the water solubility result is given as “about 0.6 w/v %”.
